Literature values, collected in patent publication US20040248925A1, “Use of 4-phenyl substituted tetrahydroisoquinolines in the treatment of pain, migraine and urinary incontinence” (priority 2002, published 2004).

Details: following treatment with imipramine; background statement

## CN(C)CCCN1c2ccccc2CCc2ccccc21 [imipramine, Imipramine]
  further patients in whom improvements can be seen: 15-20%
  patients in whom enuresis can be cured: over 50%
